Measured values reported in patent publication US20100093820A1, “CRYSTALLINE PYRAZOLES” (PHARMACIA & UPJOHN COMPANY LLC, priority 2004, published 2010).

Key:
[1] = Suspension crystallization: relative thermodynamic stability of Forms I and II; type: physicochemical; conditions: mixture of Forms I and II suspended in toluene, stirred at least three days, solid identified by PXRD
Procedure: Methods. Suspension crystallization. The relative stability relationship between Forms I and II at a specific temperature was bracketed by suspending a mixture of the two polymorphs in toluene in a closed glass vial that was equilibrated at the temperature of interest. Excess solid of one polymorph was first added to saturate toluene in a glass vial at the chosen temperature. The other polymorph was added at least half an hour later. The suspension was stirred continuously for at least three days. A portion of the suspension was withdrawn and immediately filtered. The filtered solid was analyzed using PXRD to identify the equilibrium solid at that temperature. […] By repeating the experiment at different temperatures, the Tt was bracketed.
Suspension Crystallization. […] The Tt must be approximately 70 to about 73° C.

[2] = Relative stability of crystal forms at ambient temperature and pressure; type: physicochemical
Description: has been described in U.S. Pat. Nos. 5,466,823 and 5,521,207. The description describes a synthesis of the compound, but is silent with respect to the crystalline form which is obtained. […] The forms can be distinguished by their PXRD (powder X-ray diffraction) patterns.

temperature at which the form is thermodynamically more stable (equilibrium solid phase) [1]	SMILES	stability of crystal form relative to the other form [2]
≤ 71.0 °C	NS(=O)(=O)c1ccc(-n2nc(C(F)(F)F)cc2-c2ccc(F)cc2)cc1 [Form I, 4-[5-(4-fluorophenyl)-3-(trifluoromethyl)-1H-pyrazol-1-yl]-benzenesulfonamide]	–
≥ 71.5 °C	NS(=O)(=O)c1ccc(-n2nc(C(F)(F)F)cc2-c2ccc(F)cc2)cc1 [Form II, 4-[5-(4-fluorophenyl)-3-(trifluoromethyl)-1H-pyrazol-1-yl]-benzenesulfonamide]	unstable with respect to another form, Form I
